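Growth conditions: 96-well plates. Treatment: test compound, 48 hours, 5 concentrations. Analysis: linear interpolation between bracketing concentrations; unreached endpoints set to highest concentration. TGI denotes the concentration required for complete inhibition of growth.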
How the values were obtained:
Assay in all cases: NCI anticancer screen, dose series, 48 h
SK-MEL-28 melanoma = test system: SK-MEL-28 melanoma
SN12C renal = test system: SN12C renal
SW-620 colon = test system: SW-620 colon
COLO 205 colon = test system: COLO 205 colon
786-0 renal = test system: 786-0 renal
MOLT-4 leukemia = test system: MOLT-4 leukemia
U251 CNS = test system: U251 CNS
HOP-62 NSCLC = test system: HOP-62 NSCLC
IGROV1 ovarian = test system: IGROV1 ovarian
RXF-631 renal = test system: RXF-631 renal
SF-268 CNS = test system: SF-268 CNS
OVCAR-4 ovarian = test system: OVCAR-4 ovarian
TK-10 renal = test system: TK-10 renal
ACHN renal = test system: ACHN renal
HOP-18 NSCLC = test system: HOP-18 NSCLC
M19-MEL melanoma = test system: M19-MEL melanoma
A549 NSCLC = test system: A549 NSCLC
CAKI-1 renal = test system: CAKI-1 renal
SF-295 CNS = test system: SF-295 CNS
OVCAR-5 ovarian = test system: OVCAR-5 ovarian
SF-539 CNS = test system: SF-539 CNS
NCI-H226 lung = test system: NCI-H226 lung
MALME-3M melanoma = test system: MALME-3M melanoma
SNB-19 CNS = test system: SNB-19 CNS
DLD-1 colon = test system: DLD-1 colon
UACC-257 melanoma = test system: UACC-257 melanoma
CCRF-CEM leukemia = test system: CCRF-CEM leukemia
KM20L2 colon = test system: KM20L2 colon
NCI-H460 lung = test system: NCI-H460 lung
UACC-62 melanoma = test system: UACC-62 melanoma
LOX IMVI melanoma = test system: LOX IMVI melanoma
HCT-15 colon = test system: HCT-15 colon
HT29 colon = test system: HT29 colon
DMS 273 small cell lung = test system: DMS 273 small cell lung
NCI-H522 lung = test system: NCI-H522 lung
LXFL 529 NSCLC = test system: LXFL 529 NSCLC
K-562 leukemia = test system: K-562 leukemia
OVCAR-8 ovarian = test system: OVCAR-8 ovarian
KM12 colon = test system: KM12 colon
OVCAR-3 ovarian = test system: OVCAR-3 ovarian
RXF 393 renal = test system: RXF 393 renal
SNB-78 CNS = test system: SNB-78 CNS
EKVX NSCLC = test system: EKVX NSCLC
HCT-116 colon = test system: HCT-116 colon
HL-60(TB) leukemia = test system: HL-60(TB) leukemia
A498 renal = test system: A498 renal
M14 melanoma = test system: M14 melanoma
DMS 114 small cell lung = test system: DMS 114 small cell lung
HOP-92 NSCLC = test system: HOP-92 NSCLC
UO-31 renal = test system: UO-31 renal
SK-MEL-5 melanoma = test system: SK-MEL-5 melanoma
RPMI-8226 leukemia = test system: RPMI-8226 leukemia
NCI-H23 lung = test system: NCI-H23 lung
SK-MEL-2 melanoma = test system: SK-MEL-2 melanoma
XF 498 CNS = test system: XF 498 CNS
SK-OV-3 ovarian = test system: SK-OV-3 ovarian
SR leukemia = test system: SR leukemia
HCC-2998 colon = test system: HCC-2998 colon

Measured: TGI

COC(=O)C(Cc1cc(OC)c(OC)c(OC)c1)c1ccc(OC)cc1 (configuration not stated)
not listed: NCI-H23 lung | SK-MEL-2 melanoma | XF 498 CNS | SK-OV-3 ovarian | SR leukemia | HCC-2998 colon
> 100 µM: all other assays above

CC1(C)Cc2c(C#N)c(N)c3c(c2CO1)C(=O)OC3=O
not listed: 786-0 renal | RXF-631 renal | SF-295 CNS | DLD-1 colon | UACC-257 melanoma | SNB-78 CNS | A498 renal | HOP-92 NSCLC
> 100 µM: all other assays above

From PubChem BioAssay (NCI)
